Values after ≈ are worked out from the molar mass of the structure shown. Structures can show the parent of a compound that is named as a salt. *1 amine or outer side, *2 acyl side, *3 side chain or, on linkers, in order; H or OH if unused. Where a SMILES comes first, the peptide text is derived from it. Bridges are numbered along the chain shown (N, C = ends). Roman numbers before positions name the chains, in order. [ ]: non-standard residue; d: D form. Actinocin(9to1) = Cc1c2oc3c(C)ccc(C(=O)[*:1])c3nc-2c(C(=O)[*:2])c(N)c1=O; NMeV = CN[C@H](C(=O)O)C(C)C; Sar = CNCC(=O)O
Experiments:
[1] = test system: Human Umbilical Vein Endothelial (HUVEC) cell line; assay: cells; conditions: 24 h, read-out: MTT IC 50
[2] = test system: Bacillus Calmette–Guérin (BCG) (1173P2); assay: organism not typed; format: cell-based, Mycobacterium bovis
[3] = test system: Human Umbilical Vein Endothelial (HUVEC) cell line
M. tuberculosis = conditions: cited from earlier work; for activity against mychobacterium tuberculosis: both active and persistent form
[4] = test system: pantothenate synthetase (PanC, Rv3602c); conditions: HTS hits; cited from earlier work
[5] = 48 h, read-out: MIC 48 h, BCG, alamar blue, colour read after 48 h reincubation
[6] = 72 h, read-out: BCG MIC, Table 4, same values as 72 h reading
[7] = 72 h, read-out: MIC 72 h, BCG, alamar blue, colour read after 72 h reincubation
[8] = 72 h, read-out: MIC, Mycobacterium bovis BCG, corresponds to 72 h values

| Compound | IC50 [1] [µg/mL] | MIC [2, 5] [µg/mL] | MIC [2, 6] [µg/mL] | MIC [2, 7] [µg/mL] | MIC [2, 8] [µg/mL] | also measured |
| --- | --- | --- | --- | --- | --- | --- |
| Nc1ccccc1 [Compound 1a] | 1040 (≈ 11100 µM) | 500 (≈ 5370 µM) | 250 (≈ 2680 µM) | 250 (≈ 2680 µM) |  |  |
| N#Cc1ccccc1N [Compound 1b] | 908 (≈ 7680 µM) | 500 (≈ 4230 µM) | 93.8 (≈ 794 µM) | 93.8 (≈ 794 µM) |  |  |
| c1ccc2[nH]ccc2c1 [Compound 1c, indole] | 573 (≈ 4890 µM) | 125 (≈ 1070 µM) | 46.9 (≈ 400 µM) | 46.9 (≈ 400 µM) | 46.9 (≈ 400 µM) | selectivity indices (SI) [3]: ≥ 10; tuberculostatic effect (M. tuberculosis): comparable with Isoniazid |
| c1ccc2c(c1)CCN2 [Compound 1d, indoline] | 800 (≈ 6710 µM) | 31.2 (≈ 262 µM) | 7.81 (≈ 65.5 µM) | 7.81 (≈ 65.5 µM) | 7.81 (≈ 65.5 µM) |  |
| Nc1ccc2c(c1)Cc1ccccc1-2 [Compound 1e, 2-fluorenamine] | 726 (≈ 4010 µM) | 31.2 (≈ 172 µM) | 11.7 (≈ 64.7 µM) | 11.7 (≈ 64.7 µM) | 11.7 (≈ 64.7 µM) | selectivity indices (SI) [3]: ≥ 10 |
| Nc1cccc2c1C(=O)c1ccccc1C2=O [Compound 1f, 1-aminoanthraquinone] | 14.2 (≈ 63.5 µM) | 188 (≈ 840 µM) | 7.81 (≈ 35 µM) | 7.81 (≈ 35 µM) | 7.8 (≈ 34.9 µM) | cytotoxicity in HUVEC cell line [3]: not in acceptable range; MIC ([2]; Mycobacterium bovis BCG, corresponds to 72 h values): 7.81 µg/mL (≈ 35 µM) |
| Nc1ccc(Nc2ccccc2)c2c1C(=O)c1ccccc1C2=O [Compound 1g, 1-amino-4-anilino-9,10-anthraquinone] | 344 (≈ 1100 µM) | 7.81 (≈ 24.8 µM) | < 3.9 | < 3.9 | < 3.9 | selectivity indices (SI) [3]: ≥ 10 |
| O=C1c2ccccc2C(=O)N1CCO [Compound 1h, N-(2-Hydroxyethyl)-phthalimide] | 842 (≈ 4400 µM) | 500 (≈ 2620 µM) | 500 (≈ 2620 µM) | 500 (≈ 2620 µM) |  | antimycobacterial activity ([2]; BCG): did not show good activity |
| NCCCn1ccnc1 [Compound 1i] | 441 (≈ 3520 µM) | 250 (≈ 2000 µM) | 125 (≈ 999 µM) | 125 (≈ 999 µM) |  |  |
| O=C(O)/C=C/c1cnc[nH]1 [Compound 1j] | 1190 (≈ 8590 µM) | 500 (≈ 3620 µM) | 500 (≈ 3620 µM) | 500 (≈ 3620 µM) |  | antimycobacterial activity ([2]; BCG): no activity |
| Cc1cc(C(=O)O)no1 [Compound 2a, 5-methylisoxazole-3-carboxylic acid] | 1090 (≈ 8600 µM) | 500 (≈ 3930 µM) | 125 (≈ 983 µM) | 125 (≈ 983 µM) |  | antimycobacterial activity ([2]; BCG): no antimycobacterial activity |
| O=C(O)c1cc2ccccc2oc1=O [Compound 2b, coumarin-3-carboxylic acid] | 924 (≈ 4860 µM) | 125 (≈ 657 µM) | 31.2 (≈ 164 µM) | 31.2 (≈ 164 µM) | 31.2 (≈ 164 µM) | selectivity indices (SI) [3]: ≥ 10 |
| C[C@]1(COc2ccc(N3CCC(Oc4ccc(OC(F)(F)F)cc4)CC3)cc2)Cn2cc([N+](=O)[O-])nc2O1 [OPC-676833] |  |  |  |  |  | activity against mychobacterium tuberculosis (M. tuberculosis): good in-vitro and in-vivo activity |
| O=[N+]([O-])c1cn2c(n1)OC[C@@H](OCc1ccc(OC(F)(F)F)cc1)C2 [PA-8242] |  |  |  |  |  | activity against mychobacterium tuberculosis (M. tuberculosis): good in-vitro and in-vivo activity |
| Cc1c2oc3c(C)ccc(C(=O)N[C@@H]4C(=O)N[C@H](C(C)C)C(=O)N5CCC[C@H]5C(=O)N(C)CC(=O)N(C)[C@@H](C(C)C)C(=O)O[C@@H]4C)c3nc-2c(C(=O)N[C@@H]2C(=O)N[C@H](C(C)C)C(=O)N3CCC[C@H]3C(=O)N(C)CC(=O)N(C)[C@@H](C(C)C)C(=O)O[C@@H]2C)c(N)c1=O [actinomycin D] (I: T[dV]P[Sar][NMeV] / II: T[dV]P[Sar][NMeV]; ester I:1-I:C, II:1-II:C; linker I:N-II:N via Actinocin(9to1)) |  |  |  |  |  | activity against pantothenate synthetase [4]: poor activity |
| COc1cccc2c1C(=O)c1c(O)c3c(c(O)c1C2=O)C[C@@](O)(C(=O)CO)C[C@@H]3O[C@H]1C[C@H](N)[C@H](O)[C@H](C)O1 [doxorubicin, reference compound] | 3.1 (≈ 5.7 µM) |  |  |  |  |  |
| CC[C@@H](CO)NCCN[C@@H](CC)CO [ethambutol, Ethambutol, reference compound] |  |  |  |  |  | MIC ([2]; Bacillus, BCG, read-out: MIC of ethambutol, positive control, table footnote, reading time not given): 3.12 µg/mL |
| CCN(CC)CCOC(=O)C(Cc1cccc2ccccc12)CC1CCCO1 (stereo not shown) [nafronyl oxalate] |  |  |  |  |  | activity against pantothenate synthetase [4]: poor activity |

Source: paper PMC4277633 (Iranian Journal of Pharmaceutical Research : IJPR, 2015)
